Patent US20180092923A1, “METHODS FOR TREATING LYSOSOMAL STORAGE DISORDERS” (BIOMARIN PHARMACEUTICAL INC., priority 2015, published 2018)

Tested on: GM01896 cells
Test: MPS II cellular assay
Format: cell-based
Details: Homo sapiens, Fibroblast; dermal fibroblasts from an individual with MPS II (GM01896); heparan sulfate disaccharide I2a4, I2a6, I2S0 and/or I2S6 detected by LC-MS
Experimental: Dermal fibroblasts from humans with an MPS disorder and from healthy donors were grown. Cells were expanded and kept in culture for analysis.
Human foreskin fibroblasts are obtained from the American Type Culture Collection (CRL-1634). […] Sulfamidase activity in cell extracts is measured with 4-methylumbelliferyl-α-D-N-sulfoglucosaminide according the vendors instructions substituting Tris-acetate buffer (pH 6.5; Moscerdam). […]
Cell monolayers are washed with phosphate buffered saline and detached by treatment with GIBCO trypsin-EDTA solution (Invitrogen). […] The amount of protein is determined by bicinchoninic acid (BCA assay, Thermo Scientific). […]
Enzymatically depolymerized GAG preparations are differentially mass labeled by reductive amination with [^12C6]aniline. […] Samples are then analyzed by LC-MS using an LTQ Orbitrap Discovery electrospray ionization mass spectrometer (Thermo Scientific) equipped with quaternary HPLC pump (Finnigan Surveyor MS pump) and a reverse-phase capillary column.
For MPS II, GM01896 cells were treated with a compound described herein and the heparan sulfate disaccharide detected was [^12C6]aniline-tagged I2a4, I2a6, I2S0 and/or I2S6. […] Cell viability was monitored using alamar blue or ATP quantification. IC50's were calculated using curve fitting within the ChemInnovation CBIS database system.

SMILES: Cc1cccc(/C=N/Nc2cc(N3CCOCC3)nc(OCCc3ccccn3)n2)c1 [Compound 11, (E)-4-(6-(2-(3-methylbenzylidene)hydrazinyl)-2-(2-(pyridin-2-yl)ethoxy)pyrimidin-4-yl)morpholine]
- IC50: 170 nM
